Legend:
Assay type in all cases: biochemical
PARP10 cat = target: T1, PARP10 cat (Homo sapiens, UniProt Q53GL7); test: […]-NAD+ ADP-ribosylation of RNA, urea-PAGE autoradiography; settings: acceptor 5'-phosphorylated ssRNA; 50 uM NAD+, 5 mM MgCl2, pH 7.6, 37 °C; labelled compound
T1 construct: catalytic domain (818-1025), GST tag (pGEX-4T1), E. coli Rosetta DE3, gel filtration
T1 sequence (Q53GL7 818-1025): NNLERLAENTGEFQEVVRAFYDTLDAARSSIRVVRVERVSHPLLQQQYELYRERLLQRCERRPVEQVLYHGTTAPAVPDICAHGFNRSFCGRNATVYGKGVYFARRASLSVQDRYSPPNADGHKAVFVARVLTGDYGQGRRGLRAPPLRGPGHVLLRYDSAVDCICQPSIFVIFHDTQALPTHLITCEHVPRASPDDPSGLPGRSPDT

TRPT1 = target: T2, TRPT1 (Homo sapiens, UniProt Q86TN4); test: as above; settings: acceptor 5'-phosphorylated ssRNA; 50 uM NAD+, 5 mM MgCl2, pH 7.6, 37 °C; labelled compound
T2 construct: codon-optimised synthetic gene, His tag, pET28a, E. coli Rosetta DE3, Ni and gel filtration
T2 sequence (Q86TN4 1-253): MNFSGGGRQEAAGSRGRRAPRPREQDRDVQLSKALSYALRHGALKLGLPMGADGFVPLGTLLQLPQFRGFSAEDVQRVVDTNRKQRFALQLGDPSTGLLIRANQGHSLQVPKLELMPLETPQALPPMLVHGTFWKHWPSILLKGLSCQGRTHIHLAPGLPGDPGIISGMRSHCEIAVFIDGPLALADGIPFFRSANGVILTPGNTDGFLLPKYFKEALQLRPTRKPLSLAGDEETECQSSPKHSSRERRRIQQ

PARP3 FL = target: T3, PARP3 FL (Homo sapiens, UniProt Q9Y6F1); test: […]-NAD+ ADP-ribosylation of DNA, urea-PAGE autoradiography; settings: acceptor DNA ends; pH 7.6, 37 °C; labelled compound
T3 construct: full length, His tag (pDEST17)
T3 sequence (Q9Y6F1 1-533): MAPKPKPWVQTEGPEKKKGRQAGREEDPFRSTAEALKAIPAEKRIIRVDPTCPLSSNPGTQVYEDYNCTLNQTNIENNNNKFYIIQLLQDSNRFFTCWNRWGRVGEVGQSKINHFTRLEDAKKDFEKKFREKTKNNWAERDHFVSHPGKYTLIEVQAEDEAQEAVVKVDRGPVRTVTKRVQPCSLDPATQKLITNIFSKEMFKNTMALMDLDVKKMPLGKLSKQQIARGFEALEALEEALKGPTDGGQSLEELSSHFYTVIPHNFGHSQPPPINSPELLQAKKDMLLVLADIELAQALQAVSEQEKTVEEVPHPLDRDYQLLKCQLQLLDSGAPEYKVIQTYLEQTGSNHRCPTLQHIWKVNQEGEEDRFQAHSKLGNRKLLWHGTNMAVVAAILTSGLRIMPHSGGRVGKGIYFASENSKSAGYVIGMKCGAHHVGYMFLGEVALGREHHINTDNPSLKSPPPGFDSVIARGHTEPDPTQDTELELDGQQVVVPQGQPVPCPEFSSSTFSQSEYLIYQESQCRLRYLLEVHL

PARP10 FL = target: T4, PARP10 FL (Homo sapiens, UniProt Q53GL7); test: […]-NAD+ ADP-ribosylation of RNA, urea-PAGE autoradiography; settings: acceptor 5'-phosphorylated ssRNA; 50 uM NAD+, 5 mM MgCl2, pH 7.6, 37 °C; labelled compound
T4 construct: full length, His6-SUMO-TEV vector, E. coli Rosetta DE3, Ni, heparin and gel filtration
T4 sequence (Q53GL7 1-1025): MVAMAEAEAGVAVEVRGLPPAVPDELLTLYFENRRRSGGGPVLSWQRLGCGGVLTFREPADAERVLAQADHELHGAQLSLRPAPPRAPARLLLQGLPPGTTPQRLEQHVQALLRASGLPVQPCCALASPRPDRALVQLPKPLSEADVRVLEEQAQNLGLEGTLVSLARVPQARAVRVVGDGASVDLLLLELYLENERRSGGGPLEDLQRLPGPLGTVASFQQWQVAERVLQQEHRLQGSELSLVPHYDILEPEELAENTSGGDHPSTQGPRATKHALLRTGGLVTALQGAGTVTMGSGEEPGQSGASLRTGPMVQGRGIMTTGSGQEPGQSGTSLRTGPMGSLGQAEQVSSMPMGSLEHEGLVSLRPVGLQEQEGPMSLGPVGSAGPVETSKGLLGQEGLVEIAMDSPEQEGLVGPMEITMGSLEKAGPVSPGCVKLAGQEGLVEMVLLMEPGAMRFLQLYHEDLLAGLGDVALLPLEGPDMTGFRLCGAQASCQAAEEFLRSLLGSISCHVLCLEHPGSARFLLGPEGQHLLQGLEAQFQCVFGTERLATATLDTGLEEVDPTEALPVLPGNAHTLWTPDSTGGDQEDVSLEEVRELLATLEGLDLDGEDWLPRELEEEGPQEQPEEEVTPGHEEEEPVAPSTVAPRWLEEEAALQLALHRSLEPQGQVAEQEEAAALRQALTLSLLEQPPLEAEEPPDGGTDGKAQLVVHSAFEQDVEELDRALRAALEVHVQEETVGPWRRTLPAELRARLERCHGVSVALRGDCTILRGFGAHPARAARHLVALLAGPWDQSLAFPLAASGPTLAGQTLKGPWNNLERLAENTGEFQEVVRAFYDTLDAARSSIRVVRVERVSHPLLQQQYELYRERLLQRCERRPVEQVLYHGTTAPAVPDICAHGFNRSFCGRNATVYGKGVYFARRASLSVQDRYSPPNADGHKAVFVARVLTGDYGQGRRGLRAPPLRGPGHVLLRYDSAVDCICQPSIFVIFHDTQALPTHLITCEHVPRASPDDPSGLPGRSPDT

NC(=O)c1ccc[n+]([C@@H]2O[C@H](COP(=O)(O)OP(=O)(O)OC[C@H]3O[C@@H](n4cnc5c(N)ncnc54)[C@H](O)[C@@H]3O)[C@@H](O)[C@H]2O)c1 [NAD+]
32P-NAD+ ADP-ribosylation of RNA, urea-PAGE autoradiography (PARP10 cat): RNA ADP-ribosylation activity of PARP10 is time and NAD^+ concentration dependent
32P-NAD+ ADP-ribosylation of RNA, urea-PAGE autoradiography (TRPT1): TRPT1 based RNA modification is time and NAD^+ concentration dependent
32P-NAD+ ADP-ribosylation of DNA, urea-PAGE autoradiography (PARP3 FL): PARP3 could only ADP-ribosylate DNA ends
32P-NAD+ ADP-ribosylation of RNA, urea-PAGE autoradiography (PARP10 FL): PARP10 full length can also ADP-ribosylate phosphorylated RNA ends
